According to ChEMBL document CHEMBL1124261 (J Med Chem, 1988):

Key:
L1210 [1] = test: Tested for cell-growth inhibition against mouse leukemic L1210 cells; format: functional, cell-based
L1210 [2] = test: Mean change in weight of mice infected with L1210 leukemia after 7 days after an intraperitoneal dose of 60 mg/kg; format: functional, Mus musculus
L1210 [3] = test: Mean survival of mice infected with L1210 leukemia after an intraperitoneal dose of 40 mg/kg for 9 days; format: functional, Mus musculus
L1210 [4] = test: Increase in life span of mice infected with L1210 leukemia after an intraperitoneal dose of 80 mg/kg for 9 days; format: functional; conditions: Mus musculus, L1210, ip, 216 h
L1210 [5] = test: Range for the survival of mice infected with L1210 leukemia after an intraperitoneal dose of 60 mg/kg for 9 days; Range is 10-18; format: functional, Mus musculus
L1210 ( R81) = test: Tested for cell-growth inhibition against mouse leukemic L1210/R81 cells; format: functional, cell-based
Dihydrofolate reductase = molecular target: T1, Dihydrofolate reductase (Mus musculus, UniProt P00375); test: biochemical
T1 sequence (P00375 whole entry): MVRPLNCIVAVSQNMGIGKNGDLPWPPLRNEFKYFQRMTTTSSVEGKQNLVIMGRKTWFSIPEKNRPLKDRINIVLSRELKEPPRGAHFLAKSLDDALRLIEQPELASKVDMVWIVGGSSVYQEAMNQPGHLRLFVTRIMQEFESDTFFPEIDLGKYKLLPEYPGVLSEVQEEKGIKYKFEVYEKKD
Description: Tested for inhibition against purified Dihydrofolate reductase from L1210 murine leukemia cells

CCRF-CEM [6] = test: Tested for cell-growth inhibition against human leukemic lymphoblast CEM cells; format: functional, cell-based
L1210 [7] = test: Range for the survival of mice infected with L1210 leukemia after an intraperitoneal dose of 20 mg/kg for 9 days; Range is 15-16; format: functional, Mus musculus
L1210 [8] = test: Mean change in weight of mice infected with L1210 leukemia after 7 days after an intraperitoneal dose of 80 mg/kg; format: functional, Mus musculus
L1210 [9] = test: Mean change in weight of mice infected with L1210 leukemia after 7 days after an intraperitoneal dose of 20 mg/kg; format: functional, Mus musculus
L1210 [10] = test: Increase in life span of mice infected with L1210 leukemia after an intraperitoneal dose of 40 mg/kg for 9 days; format: functional; conditions: Mus musculus, L1210, ip, 216 h
L1210 [11] = test: Mean change in weight of mice infected with L1210 leukemia after 7 days after an intraperitoneal dose of 40 mg/kg; format: functional, Mus musculus
L1210 [12] = test: Mean survival of mice infected with L1210 leukemia after an intraperitoneal dose of 20 mg/kg for 9 days; format: functional, Mus musculus
L1210 [13] = test: Increase in life span of mice infected with L1210 leukemia after an intraperitoneal dose of 60 mg/kg for 9 days; format: functional; conditions: Mus musculus, L1210, ip, 216 h
L1210 [14] = test: Range for the survival of mice infected with L1210 leukemia after an intraperitoneal dose of 40 mg/kg for 9 days; Range is 13-23; format: functional, Mus musculus
L1210 [15] = test: Increase in life span of mice infected with L1210 leukemia after an intraperitoneal dose of 20 mg/kg for 9 days; format: functional; conditions: Mus musculus, L1210, ip, 216 h
Mus musculus = organism: Mus musculus; test: Tested for inhibition against purified Folyl-polyglutamate synthase from mouse liver; conditions: concentration not given here
CCRF-CEM [16] = test: Tested for cell-growth inhibition against human leukemic lymphoblast CEM/MTX cells; format: functional, cell-based
L1210 [17] = test: Range for the survival of mice infected with L1210 leukemia after an intraperitoneal dose of 80 mg/kg for 9 days; Range is 9-23; format: functional, Mus musculus
L1210 [18] = test: Mean survival of mice infected with L1210 leukemia after an intraperitoneal dose of 80 mg/kg for 9 days; format: functional, Mus musculus
L1210 [19] = test: Mean survival of mice infected with L1210 leukemia after an intraperitoneal dose of 60 mg/kg for 9 days; format: functional, Mus musculus
L1210 [20] = test: Range for the survival of mice infected with L1210 leukemia after an intraperitoneal dose of 40 mg/kg for 9 days; Range is 12-25; format: functional, Mus musculus
L1210 [21] = test: Range for the survival of mice infected with L1210 leukemia after an intraperitoneal dose of 80 mg/kg for 9 days; Range is 9-11; format: functional, Mus musculus
L1210 [22] = test: Range for the survival of mice infected with L1210 leukemia after an intraperitoneal dose of 60 mg/kg for 9 days; Range is 9-24; format: functional, Mus musculus
L1210 [23] = test: Range for the survival of mice infected with L1210 leukemia after an intraperitoneal dose of 20 mg/kg for 9 days; Range is 19-22; format: functional, Mus musculus
[24] = molecular target: T2, Folylpolyglutamate synthase, mitochondrial (Mus musculus, UniProt P48760); test: Inhibitory constant against purified Folyl-polyglutamate synthase obtained from mouse
T2 sequence (P48760 whole entry): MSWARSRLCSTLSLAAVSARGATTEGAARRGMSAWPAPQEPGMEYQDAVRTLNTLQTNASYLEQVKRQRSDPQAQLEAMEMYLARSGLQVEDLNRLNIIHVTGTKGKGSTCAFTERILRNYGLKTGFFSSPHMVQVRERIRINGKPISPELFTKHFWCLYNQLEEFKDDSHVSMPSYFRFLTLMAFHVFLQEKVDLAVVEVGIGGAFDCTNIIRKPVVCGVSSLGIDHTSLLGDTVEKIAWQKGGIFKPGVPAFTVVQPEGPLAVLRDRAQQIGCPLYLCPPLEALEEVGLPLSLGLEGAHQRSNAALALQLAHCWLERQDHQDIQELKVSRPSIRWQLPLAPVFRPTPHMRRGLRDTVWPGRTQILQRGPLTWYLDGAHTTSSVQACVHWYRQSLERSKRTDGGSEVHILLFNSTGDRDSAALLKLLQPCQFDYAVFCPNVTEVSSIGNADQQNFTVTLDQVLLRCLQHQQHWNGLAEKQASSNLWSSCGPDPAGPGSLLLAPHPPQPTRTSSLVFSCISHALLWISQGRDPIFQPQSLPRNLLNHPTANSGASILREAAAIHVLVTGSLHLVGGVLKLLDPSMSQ

[25] = molecular target: T3, Folylpolyglutamate synthase, mitochondrial (Homo sapiens, UniProt Q05932); test: Inhibitory constant against purified Folyl-polyglutamate synthase obtained from human
T3 sequence (Q05932 whole entry): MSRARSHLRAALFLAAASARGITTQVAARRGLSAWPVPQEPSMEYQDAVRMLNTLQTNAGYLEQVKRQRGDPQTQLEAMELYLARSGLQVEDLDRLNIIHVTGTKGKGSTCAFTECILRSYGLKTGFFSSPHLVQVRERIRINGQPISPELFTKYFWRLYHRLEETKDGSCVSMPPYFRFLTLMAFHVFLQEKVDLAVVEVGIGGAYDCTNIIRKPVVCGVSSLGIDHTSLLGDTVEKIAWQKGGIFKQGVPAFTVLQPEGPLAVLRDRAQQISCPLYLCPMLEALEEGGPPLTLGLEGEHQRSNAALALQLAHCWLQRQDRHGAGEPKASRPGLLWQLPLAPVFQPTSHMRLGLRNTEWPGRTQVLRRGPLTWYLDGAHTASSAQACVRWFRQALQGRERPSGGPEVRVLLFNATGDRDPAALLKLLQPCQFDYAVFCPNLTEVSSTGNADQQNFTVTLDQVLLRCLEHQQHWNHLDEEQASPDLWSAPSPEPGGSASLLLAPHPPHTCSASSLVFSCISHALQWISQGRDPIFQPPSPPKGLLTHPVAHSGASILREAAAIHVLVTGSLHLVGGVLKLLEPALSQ

Row | SMILES | IC50 (L1210 [1]) | Weight change (L1210 [2]) | Survival (L1210 [3]) | ILS at 80 mg/kg (L1210 [4]) | IC50 (L1210 ( R81)) | IC50 (Dihydrofolate reductase) | IC50 (CCRF-CEM [6]) | Weight change (L1210 [8]) | Weight change (L1210 [9]) | ILS at 40 mg/kg (L1210 [10]) | Weight change (L1210 [11]) | Survival (L1210 [12]) | ILS at 60 mg/kg (L1210 [13]) | ILS at 20 mg/kg (L1210 [15]) | inhibition (Mus musculus) | IC50 (CCRF-CEM [16]) | Survival (L1210 [18]) | Survival (L1210 [19]) | also measured
1 | CN(Cc1cnc2nc(N)nc(N)c2n1)c1ccc(C(=O)NC(CCCCCCCCC(=O)O)C(=O)O)cc1 (stereo unspecified) | 0.0031 µM | 4% | 16.9 days | 73% | 78 µM | 0.029 µM | 0.056 µM | -5% | 5% | 92% | 2% | 15.2 days | 70% | 73% | 49% | 2.2 µM | 15.2 days | 15 days | Range (L1210 [5]): 10 days; Range (L1210 [7]): 15 days; Range (L1210 [14]): 13 days; Range (L1210 [17]): 9 days
2 | CN(Cc1cnc2nc(N)nc(N)c2n1)c1ccc(C(=O)NC(CCCCCCCCCCC(=O)O)C(=O)O)cc1 (stereo unspecified) | 0.026 µM | 2% | 19 days | 14% | 56 µM | 0.026 µM | 0.64 µM | 4% | 3% | 116% | 3% | 20.4 days | 97% | 137% | 59% | 10 µM | 10 days | 17.3 days | Range (L1210 [20]): 12 days; Range (L1210 [21]): 9 days; Range (L1210 [22]): 9 days; Range (L1210 [23]): 19 days
3 | NCCC[C@H](NC(=O)c1ccc(NCc2cnc3nc(N)nc(N)c3n2)cc1)C(=O)O |  |  |  |  |  |  |  |  |  |  |  |  |  |  |  |  |  |  | Ki [24]: 0.3 µM; Ki [25]: 0.3 µM
